Consider 16 compounds from patent US20110065916A1, “METHOD OF MAKING IMIDAZOAZEPINONE COMPOUNDS” (priority 2007, published 2011).

One test relates to human T-bet. Kind of test: HEKT-bet-luc assay (normalized HEKT-bet IC50). The following applies: Homo sapiens, HEK293, 24 h, Table 2, engineered HEK cells, compound 24 hours, normalized to reference ER-819544. The test is classed as cell-based. As to the method: HEKT-bet-luc assay: This assay measures a T-bet dependent reporter (luciferase) activity in engineered HEK cells that express a human T-bet and a T-box responsive element driving luciferase reporter. HEKT-bet cells were plated at 2×10^4/well in 96-well plate and compound was added into cell culture for 24 hours. Luciferase activity was measured by adding 50 μl of Steady-Glo reagent (Promega) and samples were read in Victor V reader (PerkinElmer). The activity of compound was determined by comparing compound treated samples to non-compound treated vehicle controls. The IC50 values were calculated utilizing a maximum value corresponding to the amount of luciferase in the absence of a test compound and a minimum value corresponding to a test compound value obtained at maximum inhibition.
Determination of Normalized HEKT-bet IC50 values: Compounds were assayed in microtiter plates. Each plate included a reference compound which was ER-819544. The un-normalized IC50 value for a particular compound was divided by the IC50 value determined for the reference compound in the same microtiter plate to provide a relative potency value. The relative potency value was then multiplied by the established potency of the reference compound to provide the normalized HEKT-bet IC50 value. […] The IC50 values provided herein were obtained using this normalization method.
What is called IC50 is the point on the concentration scale where inhibition reaches its midpoint. Lower therefore signals greater potency. In turn, `COc1cc2c(c(OC)c1)C(C)(C)C=C1N(C2)C(=O)NC12CCN(Cc1ccccc1)CC2` [compound 819667] had an IC50 of 250 nM.

Staying with this test, now noted: Homo sapiens, HEK293, 24 h, Table 4, engineered HEK cells, compound 24 hours, normalized to reference ER-819544.
`CCN1C(=O)N2Cc3cc(OC)cc(OC)c3[C@@H](C)C=C2C12CCN(Cc1ccn(C)c1)CC2` [ER-819961-01] registered an IC50 of 96 nM.
Turning to `CCN1C(=O)N2Cc3cc(OC)cc(OC)c3[C@@H](C)C=C2C12CCN(Cc1nc3ccccc3[nH]1)CC2` [ER-819965-01], half-maximal inhibition (IC50) required 130 nM.
Consider `CCN1C(=O)N2Cc3cc(OC)cc(OC)c3[C@@H](C)C=C2C12CCN(Cc1ccc3[nH]ccc3c1)CC2` [ER-819966-01], for which 48 nM corresponded to half-maximal inhibition (IC50).
Consider `CCN1C(=O)N2Cc3cc(OC)cc(OC)c3[C@@H](C)C=C2C12CCN(Cc1cn(C)nc1C)CC2` [ER-819971-01], for which half-maximal inhibition (IC50) was put at 34 nM.
In the case of `CCN1C(=O)N2Cc3cc(OC)cc(OC)c3[C@@H](C)C=C2C12CCN(Cc1cc(C)nn1C)CC2` [ER-819973-01], half-maximal inhibition (IC50) required 30 nM.
On the same count and under the same terms, then `CCN1C(=O)N2Cc3cc(OC)cc(OC)c3[C@@H](C)C=C2C12CCN(Cc1cnn(C)c1C)CC2` [ER-819976-01], with 23 nM.
As for `CCN1C(=O)N2Cc3cc(OC)cc(OC)c3[C@@H](C)C=C2C12CCN(Cc1cccn1-c1cccnc1)CC2` [ER-819979-01], half-maximal inhibition (IC50) was put at 120 nM.
In turn, `CCN1C(=O)N2Cc3cc(OC)cc(OC)c3[C@@H](C)C=C2C12CCN(Cc1nc3ccccc3o1)CC2` [ER-819981-01] gave an IC50 of 200 nM.
Take `CCN1C(=O)N2Cc3cc(OC)cc(OC)c3[C@@H](C)C=C2C12CCN(Cc1nccc(-c3ccccc3)n1)CC2` [ER-819985-01]: the 50% inhibitory concentration (IC50) worked out at 130 nM.
`CCN1C(=O)N2Cc3cc(OC)cc(OC)c3[C@@H](C)C=C2C12CCN(Cc1nc(OC)cc(OC)n1)CC2` [ER-820004-01]: the IC50 was found to be 67 nM.
The compound `CCN1C(=O)N2Cc3cc(OC)cc(OC)c3[C@@H](C)C=C2C12CCN(Cc1cccn1CCC#N)CC2` [ER-820008-00] had an IC50 of 240 nM.
The compound `CCN1C(=O)N2Cc3cc(OC)cc(OC)c3[C@@H](C)C=C2C12CCN(Cc1nccn1OCc1ccccc1)CC2` [ER-820009-00] registered an IC50 of 110 nM.
Regarding `CCN1C(=O)N2Cc3cc(OC)cc(OC)c3[C@@H](C)C=C2C12CCN(Cc1cccn1-c1cc(C)on1)CC2` [ER-820017-01], the IC50 was found to be 69 nM.
Same read-out and setting: the result for `CCN1C(=O)N2Cc3cc(OC)cc(OC)c3[C@@H](C)C=C2C12CCN(Cc1cccn1-c1cnccn1)CC2` [ER-820020-02] reads 180 nM.
On the same count and under the same terms, the result for `CCN1C(=O)N2Cc3cc(OC)cc(OC)c3[C@@H](C)C=C2C12CCN(Cc1cc(OC)c(F)c(OC)c1)CC2` [ER-824214-00] reads 29 nM.
